Laboratory results taken from patent publication US11324706B2, “Composition for inhibiting growth of breast cancer stem cells containing phenylacetaldehyde” (JEJU NATIONAL UNIVERSITY INDUSTRY-ACADEMIC COOPERATION …, priority 2016, dated 2022).
“Also recorded” adds a separate entry of the source.

Columns and labels:
MDA-MB-231 cells [1] = assay: Analysis of apoptosis by fluorescent staining (Hoechst 33258); type: cell-based, human; conditions: MDA-MB-231, Hoechst 33258 staining
Experimental: (§1) (FIGS. 1D, E and F) show effects of PAA on apoptosis of breast cancer cells. MDA-MB-231 cells were treated with PAA for 24 hours, and apoptotic cells were analyzed by FACS using an Annexin V-PI staining kit. Caspase 3/7 activity in MDA-MB-231 cells was analyzed using a Caspase-Gloss 3/7 kit. By fluorescent staining, apoptotic cells were analyzed and nuclei thereof were stained with Hoechst 33258 in breast cancers (magnified, 200×) (FIG. 1);
MDA-MB-231 cells were treated with 200 μm of PAA for 24 hours and were cultured in a Hoechst 33258 solution (10 mg/mL) at 37° C. for 30 minutes.

MDA-MB-231 cells [2] = assay: Annexin V/PI staining analysis (FACS); type: cell-based, human; conditions: MDA-MB-231, PAA 0.2 mM, 24 hours
Experimental: as §1
[…] In accordance with the manufacturer's instructions, the cancer cells were double-stained with PI and FITC-Annexin V. The sample was analyzed by flow cytometry (Accuri C6, BD, San Diego, Calif., USA).

MCF-7 cells = assay: Xenograft tumor model; type: in vivo, NOD-SCID (BALB/cSIc (nu/nu)) female nude mice
Experimental: FIGS. 3A, 3B and 3C show effects of PAA on tumor growth in xenograft tumor models. 3 million cells were injected into breast fat pads of NOD-SCID female nude mice;
The dose of used drug is 10 mg/kg. 9 weeks later, the image was captured with Odyssey® image (LICOR, Pearl image system, USA). Using an IRDye 800 CW optical probe (2DG), a high grade of tumor was used to detect breast tumors at a channel of 800 nm and was represented by pseudo-color;
A tumor growth curve was monitored during the test period;
Tumor volume was measured after initiation of treatment. * means p<0.05, as compared to control group. A representative image was captured at the end of 9 weeks of treatment. Results are shown as a vehicle-treated control group, a PAA-treated mouse and a Dox-treated mouse;
24 NOD-SCID (BALB/cSIc (nu/nu)) female nude mice in total were divided into four groups producing breast cancer cells. Six mice as a negative control group were not subjected to chemotherapy. However, the volumes of tumors of control group mice were measured every three days using the Equation of (width^2×length)/2 (FIG. 3). PAA was administered at the optimal dose of 10 to 50 mg/kg to six other nude mice via breast fat pad injection. In addition, doxorubicin (Dox) was administered daily in a low dose of 10 mg/kg to other six nude mice as a positive control group via breast fat pad injection. The last group was used as a non-tumor group without treatment.

MDA-MB-231 cells [3] = assay: Scratch migration assay; type: cell-based, human
Experimental: Scratch curing of MDA-MB-231 cells was imaged at […] with or without PAA treatment;
MDA-MB-231 cells were seeded on a 6-well plate to grow cells until confluence reached 90%. Scratch was created on the cell layer using a sterilized white micro-pipette tip. After washing with DMEM medium, breast cancer cells were treated with PAA or DMSO. 16 hours later, the scratch region was imaged with a 10× optical microscope.

HT-29 cells = assay: MTS analysis in human colorectal cancer cells; type: cell-based; conditions: HT-29, MTS, PAA at a concentration up to 2 mM
Experimental: Anti-proliferation effects of PAA in human colorectal cancer cell lines were measured by MTS analysis.
Next, in order to investigate anti-proliferation effects of PAA on human colorectal cancer cell lines, i.e., HT-29 cells, after treatment with PAA at different concentrations, MTS analysis was conducted.

mammospheres = assay: Growth of mammospheres (cell counting); type: cell-based
Experimental: PAA inhibits growth of mammospheres. Mammospheres treated with PAA and DMSO for 2 days were separated into single cells and the equal number of cells were seeded on a 6 cm dish. 24 hours after seeding, the cells were counted. At 2- and 3-days, the cells were counted three times and plotted by the mean of the number. The data was represented by mean±standard deviation (SD). * means P<0.05, as compared to DMSO-treated control group;
Accordingly, for PAA, the levels of ROSs in breast cancer stem cells were investigated. As a result, PAA induced ROS activity in MDA-MB-231 cells (FIG. 7B). Next, in order to identify whether or not PAA inhibits proliferation of mammospheres, the mammospheres were treated with PAA and the cell number of mammospheres was counted.

[4] = tested on: nuclear STAT3 proteins (phosphorylation); assay: Western blotting of mammosphere nuclear proteins, pStat3; type: cell-based, human; conditions: MCF-7-derived mammospheres, compared to the control group
Experimental: (§2) The proteins isolated from mammospheres of PAA-treated MCF-7 were separated on 10% SDS-PAGE and transferred to a polyvinylidene difluoride membrane (Millipore, Bedford, Mass., USA). The membrane was blocked in 5% skim milk-containing PBS-Tween 20 (0.1%, v/v) for 30 minutes at room temperature. The blot was cultured at 4° C. in a blocking solution containing primary antibodies overnight. The used primary antibodies were as follows: Stat3, p65, Lamin B, and phospho-Stat3 (Cell Signaling, Beverly, Mass., USA). β-actin antibodies (Santa Cruz Biotechnology) were used as a loading control group. After washing with PBS-Tween 20 (0.1%, v/v), the blot was cultured in a horseradish peroxidase-conjugated secondary antibody and subjected to photosensitive treatment with a chemiluminescent detection kit (Santa Cruz Biotechnology).
(§3) In order to investigate cellular functions of PAA, STAT3 and NF-κB pathways were investigated in MCF-7-derived mammospheres subjected to treatment with PAA. As compared to the control group, PAA reduced phosphorylation of nuclear STAT3 proteins.

secreted IL-6 = assay: Western blot of secreted IL-6 in mammosphere culture solution; type: cell-based, human; conditions: culture solution of mammospheres
Text: PAA reduces extracellular IL-6 protein levels in mammosphere culture;
The secreted IL-6 is known to play a key role in the formation of mammospheres (Sansone P, Storci G, Tavolari S, Guarnieri T, Giovannini C, Taffurelli M, Ceccarelli C, Santini D, Paterini P, Marcu K B, Chieco P and Bonafe M. IL-6 triggers malignant features in mammospheres from human ductal breast carcinoma and normal mammary gland. J Clin Invest. 2007; 117(12):3988-4002). Accordingly, in order to investigate the amount of produced secreted IL-6, western blot analysis was conducted in a culture solution of mammospheres using IL-6 antibodies. […] The internal control group was used to count mammospheres before and after treatment with PAA.

nuclear p65 = assay: Western blotting of mammosphere nuclear proteins, p65; type: cell-based, human; conditions: MCF-7-derived mammospheres
Experimental: as §2, §3

O=CCc1ccccc1 [PAA, phenylacetaldehyde] was tested, and the “formation of apoptotic bodies” value (MDA-MB-231 cells [1]) was “apoptotic bodies were formed”, the “number of breast cancer cells (Annexin V+) killed” value (MDA-MB-231 cells [2]) was “increased” and the tumor volume (MCF-7 cells; compared with Doxorubicin positive control group (10 mg/kg)) was “less than that of Doxorubicin”. For the same compound, the tumor weight (MCF-7 cells; compared with control group not treated with PAA) was “less than control group”, the tumor volume (MCF-7 cells; compared with control group not treated with PAA, breast fat pad injection) was “less than that of a control group” and the “migration of MDA-MB-231 cells” value (MDA-MB-231 cells [3]) was “concentration-dependently inhibited”. For the same compound, the “growth (proliferation) of colorectal cancer cells” value (HT-29 cells) was “did not affect; also recorded: no significant proliferation inhibitory effects”, the apoptosis of mammospheres (mammospheres) was “induced apoptosis” and the proliferation of mammospheres (mammospheres; cell number counted after PAA treatment) was “greatly reduces”. The “phosphorylation of nuclear STAT3 proteins” value [4] was “reduced”, the “production level of secreted IL-6” value (secreted IL-6) was “reduced” and the “protein levels of nuclear p65” value (nuclear p65) was “did not reduce”.
